Results as given in paper PMC10650415, “Synthesis of Tetracyclic Spirooxindolepyrrolidine-Engrafted Hydantoin Scaffolds: Crystallographic Analysis, Molecular Docking Studies and Evaluation of Their Antimicrobial, Anti-Inflammatory and Analgesic Activities” (Molecules, 2023).
Values after ≈ are worked out from the molar mass of the structure shown.

Key:
[1] = target: T1, Lipoxygenase-5 (LOX-5) enzyme (Homo sapiens, UniProt P09917); assay: In vitro lipoxygenase (LOX-5) inhibitory assay; assay type: biochemical; settings: mean ± SEM, n = 5; read-out: IC50 (LOX-5 inhibition) (converted)
T1 construct: purchased sigma 437996-500U
T1 sequence (P09917 1-674): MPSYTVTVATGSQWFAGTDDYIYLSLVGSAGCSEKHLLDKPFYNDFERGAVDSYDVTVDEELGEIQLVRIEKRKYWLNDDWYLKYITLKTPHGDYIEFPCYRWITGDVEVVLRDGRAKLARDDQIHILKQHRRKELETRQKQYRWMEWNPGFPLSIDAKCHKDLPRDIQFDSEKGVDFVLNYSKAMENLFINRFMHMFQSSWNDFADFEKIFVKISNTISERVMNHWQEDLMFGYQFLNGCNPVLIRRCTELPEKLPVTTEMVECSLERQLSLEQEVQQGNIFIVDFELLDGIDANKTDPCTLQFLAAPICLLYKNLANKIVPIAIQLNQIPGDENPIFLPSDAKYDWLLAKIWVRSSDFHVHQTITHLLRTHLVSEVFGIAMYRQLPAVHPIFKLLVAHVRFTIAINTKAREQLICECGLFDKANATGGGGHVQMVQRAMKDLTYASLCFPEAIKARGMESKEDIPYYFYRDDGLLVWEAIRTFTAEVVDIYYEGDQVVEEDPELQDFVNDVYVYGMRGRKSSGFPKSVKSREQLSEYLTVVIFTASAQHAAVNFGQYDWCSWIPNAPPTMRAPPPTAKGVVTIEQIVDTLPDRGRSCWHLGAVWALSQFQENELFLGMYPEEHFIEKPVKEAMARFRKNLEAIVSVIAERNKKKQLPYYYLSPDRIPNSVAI
Protocol: Lipoxygenases are a family of monomeric proteins that catalyze oxidation of polyunsaturated fatty acids (PUFA) (linoleic, linolenic and arachidonic acid) to produce hydroperoxides. Fractions’ anti-LOX activity was also measured as inhibition of linoleic acid’s peroxidation to hydroperoxylinoleic acid.
To evaluate the prospects of the newly synthesized spirooxindoles as promising drug candidates, we first studied their inhibitory potency against the Lipoxygenase-5 (LOX-5) enzyme.

[2] = system: λ-carrageenan-induced paw edema; assay: Carrageenan-induced paw edema test; assay type: in vivo; settings: rats
Excerpt: Diclofenac sodium was used as a reference drug.

[3] = Acute toxicity (liver and kidney indices); assay type: in vivo; settings: rats
[4] = system: S. aureus ATCC 25923; assay: MBC by the agar method; settings: for MBC: Staphylococcus aureus, ATCC25923
Protocol: (§2) To further determine the killing efficiency of the synthesized spiropyrrolidines against selected strains, the minimum bactericidal concentration (MBC) and the minimum fungicidal concentration (MFC) were assessed by the agar method [54].

[5] = system: M. luteus NCIMB 8166; assay: MBC by the agar method; settings: for MBC: Micrococcus luteus, NCIMB8166
Protocol: as §2

[6] = system: E. coli ATCC 25922; assay: MBC by the agar method
Protocol: as §2

[7] = system: P. aeruginosa ATCC 27950; assay: MBC by the agar method; settings: Pseudomonas aeruginosa, ATCC27950
Protocol: as §2

[8] = system: C. albicans ATCC 90028; assay: MFC by the agar method; settings: for MFC/MIC ratio: C. Albicans, ≤ 4 fungicidal, >4 fungistatic; for MFC: Candida albicans, ATCC90028
Protocol: as §2

[9] = system: C. kreusei ATCC 6258; assay: MFC by the agar method; settings: for MFC/MIC ratio: C. Krusei, ≤ 4 fungicidal, >4 fungistatic; for MFC: Pichia kudriavzevii, ATCC6258
Protocol: as §2

[10] = system: acetic acid-induced writhing; assay: Acetic acid-induced writhing test (analgesic); settings: 100 mg/kg
Protocol: Any writhing was considered a positive response. The efficacy and potency of analgesic activity of the test compounds is inferred from the reduction in the frequency of writhings [53].
Analgesic activity in rats was determined by the protocol described by Tiss et al. [82].

[11] = system: Staphylocoocus aureus ATCC 25923; assay: MIC, in vitro micro diffusion method; assay type: cell-based; settings: Staphylococcus aureus, ATCC25923; S. aureus ATCC 25923
Excerpt: (§1) In this part, the spiropyrrolidines 4a–m were selected to be screening for their antimicrobial activities, using in vitro micro diffusion method, against multiple bacterial strains (Staphylocoocus aureus ATCC 25923, Escherichia coli ATCC 25922, Pseudomonas aeruginosa ATCC 27950, Micrococcus luteus NCIMB 8166), and two pathogenic reference yeasts namely Candida albicans ATCC 90028 and Candida kreusei ATCC 6258.

[12] = system: Candida kreusei ATCC 6258; assay: MIC, in vitro micro diffusion method; assay type: cell-based; settings: C. krusei ATCC 6258
Excerpt: as §1

[13] = system: Micrococcus luteus NCIMB 8166; assay: MIC, in vitro micro diffusion method; assay type: cell-based; settings: NCIMB8166, M. luteus NCIMB 8166
Excerpt: as §1

[14] = Escherichia coli, ATCC25922, E. coli ATCC 25922

SMILES | IC50 [1] [mM] | MBC [4] [µg/mL] | MBC [5] [µg/mL] | MBC [6, 14] [µg/mL] | MBC [7] [µg/mL] | MFC/MIC ratio [8] | MFC [8] [µg/mL] | MFC/MIC ratio [9] | MFC [9] [µg/mL] | melting point [°C] | also measured
O=C1NC(=O)[C@]2(N1)[C@@H](c1ccc(F)cc1)[C@H](c1ccccc1)N[C@@]21C(=O)Nc2ccccc21 (racemic) [4i] | 2.28 | 750 (≈ 1700 µM) | > 1500 | 750 (≈ 1700 µM) | 188 (≈ 424 µM) | ≤ 4 | 93.8 (≈ 212 µM) | ≤ 4 | 188 (≈ 424 µM) |  | Increase in Paw Volume, 0 h ([2]; 10 mg/kg orally 1 h before carrageenan, 0 h): 0.43 ± 0.14; Increase in Paw Volume, 1 h ([2]; 10 mg/kg orally 1 h before carrageenan, 1 h): 0.98 ± 0.11; Increase in Paw Volume, 2 h ([2]; 10 mg/kg orally 1 h before carrageenan, 2 h): 1.13 ± 0.21; Increase in Paw Volume, 4 h ([2]; 10 mg/kg orally 1 h before carrageenan, 4 h): 1.51 ± 0.13; % Inhibition of Edema, 1 h ([2]; 10 mg/kg orally, 1 h): 27%; % Inhibition of Edema, 2 h ([2]; 10 mg/kg orally, 2 h): 25%; % Inhibition of Edema, 4 h ([2]; 10 mg/kg orally, 4 h, 10 mg/kg): 33%; ALT ([3]; dose of 16.25 mg/kg): 21.1 ± 1.5 U/L; AST ([3]; dose of 16.25 mg/kg): 98.3 ± 13 U/L; Albumin ([3]; dose of 16.25 mg/kg): 8.7 ± 1.66 g/L; Creat ([3]; dose of 16.25 mg/kg): 3.31 ± 0.9 µmol/L; Urea ([3]; dose of 16.25 mg/kg): 2.83 ± 0.7 mmol/L; Acute toxicity (result in words) ([3]; up to a dose of 16.25 mg/kg): did not cause any toxicity; % Inhibition (writhing) [10]: 42%; Number of Writhing ([10]; mean ± SE): 36 ± 5
Cc1ccc([C@H]2[C@H](c3ccccc3)N[C@@]3(C(=O)Nc4ccc(Br)cc43)[C@@]23NC(=O)NC3=O)cc1 (racemic) [4b] | 5.66 | 750 (≈ 1450 µM) | 750 (≈ 1450 µM) | 188 to 374 (≈ 362 to 723 µM) | 93.8 (≈ 181 µM) | ≤ 4 | 188 (≈ 362 µM) | ≤ 4 | 93.8 (≈ 181 µM) | 236 | MIC [11]: 46.9 µg/mL (≈ 90.6 µM); MBC/MIC ratio ([4]; S. aureus, ≤ 4 bactericidal, >4 bacteriostatic): 16; MBC ([6]; E. coli ATCC 25922): 375 µg/mL (≈ 725 µM)
O=C1NC(=O)[C@]2(N1)[C@@H](c1ccc(F)cc1)[C@H](c1ccccc1)N[C@@]21C(=O)Nc2ccc(Br)cc21 (racemic) [4k] | 2.97 | 188 (≈ 360 µM) | > 1500 | 188 (≈ 360 µM) | 188 (≈ 360 µM) | ≤ 4 | 188 (≈ 360 µM) | ≤ 4 | 188 (≈ 360 µM) | 223 | 
C[C@@H]1[C@H](O)[C@@H](C)/C=C/C=C/C=C/C=C/C=C/C=C/C=C/[C@H](O[C@@H]2O[C@H](C)[C@@H](O)[C@H](N)[C@@H]2O)C[C@@H]2O[C@](O)(C[C@@H](O)C[C@@H](O)[C@H](O)CC[C@@H](O)C[C@@H](O)CC(=O)O[C@H]1C)C[C@H](O)[C@H]2C(=O)O [Amphotericin B, reference compound] |  |  |  |  |  |  | 500 (≈ 541 µM) |  | 62.5 (≈ 67.6 µM) |  | MIC [12]: 62.5 µg/mL (≈ 67.6 µM)
O=C1NC(=O)[C@]2(N1)[C@@H](c1ccc(Cl)cc1)[C@H](c1ccccc1)N[C@@]21C(=O)Nc2ccc(Br)cc21 (racemic) [4h] | 3.09 | 188 (≈ 349 µM) | 188 (≈ 349 µM) | 188 to 374 (≈ 349 to 695 µM) | 188 (≈ 349 µM) |  | > 1500 |  | > 1500 | 198 | MIC [13]: 93.8 µg/mL (≈ 174 µM); MBC/MIC ratio ([5]; M. luteus, ≤ 4 bactericidal, >4 bacteriostatic): 8; MBC ([6]; E. coli ATCC 25922): 375 µg/mL (≈ 697 µM)
CN(C)[C@@H]1C(O)=C(C(N)=O)C(=O)[C@@]2(O)C(O)=C3C(=O)c4c(O)cccc4[C@@](C)(O)[C@H]3C[C@@H]12 [Tetracycline, reference compound] |  | 8 (≈ 18 µM) | 512 (≈ 1150 µM) | 512 (≈ 1150 µM) | 128 (≈ 288 µM) |  |  |  |  |  | MIC [13]: 500 µg/mL (≈ 1130 µM)
O=C1NC(=O)[C@]2(N1)[C@@H](c1ccc(F)cc1)[C@H](c1ccccc1)N[C@@]21C(=O)Nc2ccc(Cl)cc21 (racemic) [4j] | 4.03 | 93.8 (≈ 197 µM) | 750 (≈ 1570 µM) | 188 (≈ 393 µM) | 93.8 (≈ 197 µM) |  | 93.8 (≈ 197 µM) |  | 188 (≈ 393 µM) | 208 | 
